Data reported in patent publication US8569292B2, “Cyclic inhibitors of 11β-hydroxysteroid dehydrogenase 1” (Vitae Pharmaceuticals, Inc., priority 2008, dated 2013).

Assays:
[1] = biological target: T1, 11β-HSD1 (Homo sapiens, UniProt P28845); experiment: Biological Test Example 4: microsomal 11β-HSD1 in the presence of 50% human plasma; conditions: for Shift: IC50 in Test Example 4 divided by IC50 in Test Example 1
[2] = biological target: T1, 11β-HSD1; experiment: biochemical; conditions: for inhibition at 0.1 µM: read-out: Average % inhibition at 100 nM
[3] = Biological Test Example 1 IC50 (nM)
[4] = IC50 Range, Biological Test Example 1

T1 sequence (P28845 whole entry): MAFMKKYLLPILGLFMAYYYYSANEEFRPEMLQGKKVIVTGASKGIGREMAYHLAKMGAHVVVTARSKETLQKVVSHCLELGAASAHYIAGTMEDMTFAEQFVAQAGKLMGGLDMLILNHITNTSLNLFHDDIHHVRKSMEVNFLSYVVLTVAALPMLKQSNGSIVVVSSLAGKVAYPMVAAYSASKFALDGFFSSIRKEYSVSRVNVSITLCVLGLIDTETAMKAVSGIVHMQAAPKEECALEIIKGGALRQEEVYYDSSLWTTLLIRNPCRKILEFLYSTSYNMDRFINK

With `Cc1nccc(-c2ccc([C@H](C)N3CC[C@](CC(C)(C)C#N)(c4ccc(F)cc4)OC3=O)cc2)n1` [EXAMPLE 142, 3-((R)-6-(4-fluorophenyl)-3-((S)-1-(4-(2-methylpyrimidin-4-yl)phenyl)ethyl)-2-oxo-1,3-oxazinan-6-yl)-2,2-dimethylpropanenitrile] the IC50 [1] was 8.1 nM, the Shift [1] was 3.1 and the IC50 [2, 3] was 2.6 nM. For the same compound, the IC50 [2, 4] was under 100 nM and the inhibition at 0.1 µM [2] was 96.4%.
Compound `Cc1cc(-c2ccc([C@H](C)N3CC[C@](CCCN4CCCC4=O)(c4ccccc4)OC3=O)cc2)ccn1` [EXAMPLE 104, (R)-3-((S)-1-(4-(2-methylpyridin-4-yl)phenyl)ethyl)-6-(3-(2-oxopyrrolidin-1-yl)propyl)-6-phenyl-1,3-oxazinan-2-one] has an IC50 [2, 3] of 9.2 nM, an IC50 [2, 4] of under 100 nM and an inhibition at 0.1 µM [2] of 88%.
`C[C@@H](c1ccc(-c2ccc(C(C)(C)C)nn2)cc1)N1CC[C@](CC(C)(C)O)(c2ccccc2)OC1=O` [EXAMPLE 6, (S)-3-((S)-1-(4-(6-tert-butylpyridazin-3-yl)phenyl)ethyl)-6-(2-hydroxy-2-methylpropyl)-6-phenyl-1,3-oxazinan-2-one] showed an IC50 [1] of 8.6 nM, a Shift [1] of 8.4 and an IC50 [2, 3] of 1 nM. For the same compound, the IC50 [2, 4] was under 100 nM and the inhibition at 0.1 µM [2] was 96.3%.
`CNC(=O)c1cncc(-c2ccc([C@H](C)N3CC[C@](CCCO)(c4ccc(F)cc4)OC3=O)cc2)c1` [EXAMPLE 73, 5-(4-((S)-1-((R)-6-(4-fluorophenyl)-6-(3-hydroxypropyl)-2-oxo-1,3-oxazinan-3-yl)ethyl)phenyl)-N-methylnicotinamide] was tested, and the IC50 [2, 3] was 46.9 nM, the IC50 [2, 4] was under 100 nM and the inhibition at 0.1 µM [2] was 65.3%.
For `Cc1nccc(-c2ccc([C@H](C)N3CC[C@](CCCO)(c4ccc(F)cc4)OC3=O)cc2)n1` [EXAMPLE 126, (R)-6-(4-fluorophenyl)-6-(3-hydroxypropyl)-3-((S)-1-(4-(2-methylpyrimidin-4-yl)phenyl)ethyl)-1,3-oxazinan-2-one], the IC50 [1] was 13.3 nM, the Shift [1] was 8.7 and the IC50 [2, 3] was 1.5 nM. It also gave an IC50 [2, 4] of under 100 nM and an inhibition at 0.1 µM [2] of 96.7%.
`Cc1cc(-c2ccc([C@H](C)N3CC[C@](CC(C)(C)O)(c4ccc(F)cc4)OC3=O)cc2)cc[n+]1[O-]` [EXAMPLE 124, 4-(4-((S)-1-((S)-6-(4-fluorophenyl)-6-(2-hydroxy-2-methylpropyl)-2-oxo-1,3-oxazinan-3-yl)ethyl)phenyl)-2-methylpyridine 1-oxide] was tested, and the IC50 [1] was 14.5 nM, the Shift [1] was 2.6 and the IC50 [2, 3] was 5.6 nM. For the same compound, the IC50 [2, 4] was under 100 nM and the inhibition at 0.1 µM [2] was 88.1%.
Compound `Cc1cc(-c2ccc([C@H](C)N3CC[C@](CCC(C)(C)O)(c4ccc(F)cc4)OC3=O)cc2)ccn1` [EXAMPLE 79, (R)-6-(4-fluorophenyl)-6-(3-hydroxy-3-methylbutyl)-3-((S)-1-(4-(2-methylpyridin-4-yl)phenyl)ethyl)-1,3-oxazinan-2-one] has an IC50 [2, 3] of 28.3 nM, an IC50 [2, 4] of under 100 nM and an inhibition at 0.1 µM [2] of 76.9%.
Work on `C=CC[C@]1(c2ccc(F)cc2)CCN([C@@H](C)c2ccc(-n3ccc(C(F)(F)F)n3)cc2)C(=O)O1` [EXAMPLE 43, (R)-6-allyl-6-(4-fluorophenyl)-3-((S)-1-(4-(3-(trifluoromethyl)-1H-pyrazol-1-yl)phenyl)ethyl)-1,3-oxazinan-2-one] yielded an IC50 [1] of 315 nM, a Shift [1] of 36.5 and an IC50 [2, 3] of 8.6 nM. For the same compound, the IC50 [2, 4] was under 100 nM and the inhibition at 0.1 µM [2] was 86.2%.
Compound `COc1ccc(-c2ccc([C@H](C)N3CC[C@](CCO)(c4ccc(F)cc4)OC3=O)cc2)cn1` [EXAMPLE 63, (S)-6-(4-fluorophenyl)-6-(2-hydroxyethyl)-3-((S)-1-(4-(6-methoxypyridin-3-yl)phenyl)ethyl)-1,3-oxazinan-2-one] has an IC50 [1] of 15.2 nM, a Shift [1] of 18.4 and an IC50 [2, 3] of 0.8 nM. It also gave an IC50 [2, 4] of under 100 nM and an inhibition at 0.1 µM [2] of 101%.
With `C[C@@H](c1ccc(-c2ccc[n+]([O-])c2)cc1)N1CC[C@](CCC(N)=O)(c2ccc(F)cc2)OC1=O` [EXAMPLE 68, 3-(4-((S)-1-((R)-6-(3-amino-3-oxopropyl)-6-(4-fluorophenyl)-2-oxo-1,3-oxazinan-3-yl)ethyl)phenyl)pyridine 1-oxide] the IC50 [2, 3] was 85.1 nM, the IC50 [2, 4] was under 100 nM and the inhibition at 0.1 µM [2] was 50%.
For `C[C@@H](c1ccc(-c2cnc(C(C)(C)O)nc2)cc1)N1CC[C@](CC(C)(C)O)(c2ccccc2)OC1=O` [EXAMPLE 31, (S)-6-(2-hydroxy-2-methylpropyl)-3-((S)-1-(4-(2-(2-hydroxypropan-2-yl)pyrimidin-5-yl)phenyl)ethyl)-6-phenyl-1,3-oxazinan-2-one], the IC50 [1] was 9.3 nM, the Shift [1] was 1.9 and the IC50 [2, 3] was 4.8 nM. For the same compound, the IC50 [2, 4] was under 100 nM and the inhibition at 0.1 µM [2] was 90.7%.
Compound `C[C@@H](c1ccc(-c2ccccn2)cc1)N1CC[C@](CCC(N)=O)(c2ccccc2)OC1=O` [EXAMPLE 88, 3-((R)-2-oxo-6-phenyl-3-((S)-1-(4-(pyridin-2-yl)phenyl)ethyl)-1,3-oxazinan-6-yl)propanamide] has an IC50 [1] of 9.9 nM, an IC50 [2, 3] of 1.7 nM and an IC50 [2, 4] of under 100 nM. It also gave an inhibition at 0.1 µM [2] of 98.3%.
`C[C@@H](c1ccc(-c2ccc(OCC(C)(C)O)nc2)cc1)N1CC[C@](CC(C)(C)O)(c2ccccc2)OC1=O` [EXAMPLE 198, (S)-3-((S)-1-(4-(6-(2-hydroxy-2-methylpropoxy)pyridin-3-yl)phenyl)ethyl)-6-(2-hydroxy-2-methylpropyl)-6-phenyl-1,3-oxazinan-2-one] showed an IC50 [2, 3] of 1 nM, an IC50 [2, 4] of under 100 nM and an inhibition at 0.1 µM [2] of 92.4%.
Compound `C[C@@H](c1ccc(-c2ccc[n+]([O-])c2)cc1)N1CC[C@](CCC(N)=O)(c2ccccc2)OC1=O` [EXAMPLE 50, 3-(4-((S)-1-((R)-6-(3-amino-3-oxopropyl)-2-oxo-6-phenyl-1,3-oxazinan-3-yl)ethyl)phenyl)pyridine 1-oxide] has an IC50 [2] of under 100 nM, an IC50 [2, 3] of 29.1 nM and an inhibition at 0.1 µM [2] of 81.2%.
`CC(C)[C@@]1(CC(C)(C)O)CCN([C@@H](C)c2ccc(-c3cnc(C(=O)NC4CC4)nc3)cc2)C(=O)O1` [EXAMPLE 199, N-cyclopropyl-5-(4-((S)-1-((S)-6-(2-hydroxy-2-methylpropyl)-6-isopropyl-2-oxo-1,3-oxazinan-3-yl)ethyl)phenyl)pyrimidine-2-carboxamide] was tested, and the IC50 [2, 3] was 63.5 nM, the IC50 [2, 4] was under 100 nM and the inhibition at 0.1 µM [2] was 62.9%.
`Cc1ncc(-c2ccc([C@H](C)N3CC[C@](CCc4nnc(C)o4)(c4ccccc4)OC3=O)cc2)cn1` [EXAMPLE 18, (R)-6-(2-(5-methyl-1,3,4-oxadiazol-2-yl)ethyl)-3-((S)-1-(4-(2-methylpyrimidin-5-yl)phenyl)ethyl)-6-phenyl-1,3-oxazinan-2-one] showed an IC50 [2, 3] of over 100 nM, an IC50 [2, 4] of over 100 nM and an inhibition at 0.1 µM [2] of 13.7%.
For `Cc1cc(-c2ccc([C@H](C)N3CC[C@](CCCO)(c4ccc(F)cc4)OC3=O)cc2)cc(C)n1` [EXAMPLE 81, (R)-3-((S)-1-(4-(2,6-dimethylpyridin-4-yl)phenyl)ethyl)-6-(4-fluorophenyl)-6-(3-hydroxypropyl)-1,3-oxazinan-2-one], the IC50 [2, 3] was 0.6 nM, the IC50 [2, 4] was under 100 nM and the inhibition at 0.1 µM [2] was 99.3%.
`COc1cc(-c2ccc([C@H](C)N3CC[C@](CC(C)(C)O)(c4ccccc4)OC3=O)cc2)ccn1` [EXAMPLE 210, (S)-6-(2-hydroxy-2-methylpropyl)-3-((S)-1-(4-(2-methoxypyridin-4-yl)phenyl)ethyl)-6-phenyl-1,3-oxazinan-2-one] showed an IC50 [2, 3] of 0.6 nM and an IC50 [2, 4] of under 100 nM.
In the case of `C[C@@H](c1ccc(-c2cncc(C(=O)N(C)C)c2)cc1)N1CC[C@](CCCO)(c2ccc(F)cc2)OC1=O` [EXAMPLE 72, 5-(4-((S)-1-((R)-6-(4-fluorophenyl)-6-(3-hydroxypropyl)-2-oxo-1,3-oxazinan-3-yl)ethyl)phenyl)-N,N-dimethylnicotinamide], the IC50 [2, 3] is reported as 43.5 nM, the IC50 [2, 4] is reported as under 100 nM and the inhibition at 0.1 µM [2] is reported as 64.8%.
With `C[C@@H](c1ccc(-c2cncc(F)c2)cc1)N1CC[C@](CCC(=O)O)(c2ccc(F)cc2)OC1=O` [EXAMPLE 70, 3-((R)-6-(4-fluorophenyl)-3-((S)-1-(4-(5-fluoropyridin-3-yl)phenyl)ethyl)-2-oxo-1,3-oxazinan-6-yl)propanoic acid] the IC50 [2, 3] was 99.6 nM, the IC50 [2, 4] was under 100 nM and the inhibition at 0.1 µM [2] was 49.7%.
Work on `CC1(c2ccccc2)CCN(c2cccc(-c3ccncc3)c2)C(=O)O1` (centres unmarked) [EXAMPLE 33, 6-methyl-6-phenyl-3-(3-(pyridin-4-yl)phenyl)-1,3-oxazinan-2-one] yielded an IC50 [2, 3] of 305 nM, an IC50 [2, 4] of 100 to 1000 nM and an inhibition at 0.111 µM ([2]; read-out: average % inhibition at 111 nM) of 37.1%.
`C=CC[C@]1(c2ccccc2)CCN([C@@H](C)c2ccc(-c3cncc(F)c3)cc2)C(=O)O1` [EXAMPLE 46, (R)-6-allyl-3-((S)-1-(4-(5-fluoropyridin-3-yl)phenyl)ethyl)-6-phenyl-1,3-oxazinan-2-one] gave an IC50 [2, 3] of 0.8 nM, an IC50 [2, 4] of under 100 nM and an inhibition at 0.1 µM [2] of 93.4%.
With `C[C@@H](c1ccc(-c2cncc(C(N)=O)c2)cc1)N1CC[C@](CCCO)(c2ccc(F)cc2)OC1=O` [EXAMPLE 71, 5-(4-((S)-1-((R)-6-(4-fluorophenyl)-6-(3-hydroxypropyl)-2-oxo-1,3-oxazinan-3-yl)ethyl)phenyl)nicotinamide] the IC50 [2, 3] was 44.1 nM, the IC50 [2, 4] was under 100 nM and the inhibition at 0.1 µM [2] was 68.7%.
`C=CC[C@]1(c2ccc(F)cc2)CCN([C@@H](C)c2ccc(-c3nnc(C)s3)cc2)C(=O)O1` [EXAMPLE 39, (R)-6-allyl-6-(4-fluorophenyl)-3-((S)-1-(4-(5-methyl-1,3,4-thiadiazol-2-yl)phenyl)ethyl)-1,3-oxazinan-2-one] was tested, and the IC50 [2, 3] was 5.2 nM, the IC50 [2, 4] was under 100 nM and the inhibition at 0.1 µM [2] was 73.6%.
For `C[C@@H](c1ccc(-c2ncc(C(C)(C)O)cn2)cc1)N1CC[C@](CC(C)(C)O)(c2ccccc2)OC1=O` [EXAMPLE 29, (S)-6-(2-hydroxy-2-methylpropyl)-3-((S)-1-(4-(5-(2-hydroxypropan-2-yl)pyrimidin-2-yl)phenyl)ethyl)-6-phenyl-1,3-oxazinan-2-one], the IC50 [2, 3] was 12.2 nM, the IC50 [2, 4] was under 100 nM and the inhibition at 0.1 µM [2] was 83.8%.
